Assay results taken from patent US10350334B2, “Catheter locking solution having antimicrobial and anticoagulation properties” (Becton, Dickinson and Company, priority 2009, dated 2019).
“And” between values parts separate entries of the source, which are not always exact repeats. Equal entries are not always repeated.

Legend:
S. epidermidis = assay: Minimum Biofilm Inhibitory Concentration (MBIC) test; assay type: cell-based, Staphylococcus epidermidis; conditions: for MBIC: adhered cells, 24 hours incubation; for MBIC Assuming 2 mL lock volume: amount in 2 mL lock volume
Method: (§1) To further evaluate the efficacy of local anesthetics in antimicrobial lock solutions of the present invention, the minimum concentration at which these drugs can inhibit biofilm growth was tested. The local anesthetics identified in Table 4 were tested against three different species of bacteria identified in Table 3 to assess the antimicrobial efficacy against adhered microbes. It is known that adhered microbes, or biofilms, can be more resistant to antimicrobials than planktonic cells.
(§2) Experiments were conducted against adhered microbes as follows: first, a test tube containing 10 mL of sterile TSB was inocubated with BD BBL™ Qualiswab™, with the strain of interest. The tube was placed in an incubator at 37° C. overnight. The next day, a flask containing 25 mL of sterile TSB (or Sabouraud Dextrose Broth (SDB) for fungal species) was inoculated with 1 mL of bacterial suspension. The flask was placed in an incubator at 37° C. and shaken at 150 RPM. The next day a new flask containing 25 mL of TSB (or SDB) media was inoculated with 1 mL from the previous culture. The bacterial or fungal species were allowed to grow to log phase.
(§3) After the microbes entered the log phase, their concentration was checked to ensure that they had reached a minimum of 1×10^8 CFU/mL per a 0.5 MacFarland standard. Microbes were diluted to a concentration of 1×10^5 CFU/mL using a nephelometer and 200 μL of the microbial suspensions were plated on each of the wells of a 96 well plate. The plate was incubated in a standard incubator at 37° C. for 2 hours to allow for microbial cell adhesion. Next, dilutions of the desired concentrations of antimicrobials were prepared. In a separate, blank plate, 1:2 serial dilutions were prepared with the highest concentration of the antimicrobial to the left of the plate, decreasing in concentration towards the right of the plate. For example, 170 μL of the highest concentration of an antimicrobial was dispensed in column 1 (left of plate). Each of the rest of the columns received 170 μL of saline. Column 2 received 170 μL of antimicrobial, making for a 1:2 dilution (or 50% of original concentration). Contents of Column 2 were then transferred to 3, then from 3 to 4, and so forth. Each well was supplemented with 20% media (TSB for S. epidermidis and P. aeruginosa and SDB for C. albicans), thereby ensuring the viability of the cells over the test time period (24 hours). Positive control wells had 20% media in saline. The bacterial plate was removed from the incubator, and bacterial suspension discarded (adhered cells remain on plate). The antimicrobial formulations identified in Table 4 were then added to the bacterial plate and incubated in a standard incubator at 37° C. for 24 hours. After this time period, solutions in the plate were discarded and plates were rinsed with 200 μL of saline. The cells were then fixed with 200 μL of 95% ethanol for 30 minutes, and allowed to air dry for 10 minutes. Next, the cells were stained for 20 minutes with 250 μL of a filtered solution of 2% crystal violet dye. The plates were then rinsed three times with water, and the 2% crystal violet dye was solubilized with 300 μL of 95% ethanol. The plates were allowed to stand for 10 minutes to complete solubilization and then the plates were read on a spectrophotometer at 570 nm absorbance, wherein high absorbance readings of >0.600 indicated microbial growth. Columns in the plate that had no growth were recorded as the […] (MBIC). FIG. 2 illustrates the MBIC corresponding to the specific local anesthetics.

[1] = system: Staphylococcus epidermidis biofilm; assay: Catheter biofilm eradication (catheter segment test) on silicone tubing; assay type: cell-based; conditions: 1 hour, silicone catheter segments
Method: (§4) To understand the antimicrobial effects of the local anesthetics used in the lock solution of the present invention in a clinical setting, a biofilm was grown on silicone catheter-like tubing and treated with various concentrations of local anesthetics. First, a sterile silicone catheter-like tube containing 10 mL TSB media was inoculated with a BD BBL™ Qualiswab™, and placed in an incubator at 37° C. overnight. The next day, a sterile flask containing 25 mL TSB (for bacterial species) or 25 mL SDB (for fungal species) was inoculated with the cultured cells. The morning of the experiment, a new flask containing 25 mL of media was inoculated with the new overnight suspension. These steps were taken to ensure that cells were in the log phase, which for S. epidermidis was ˜3-4 hours, and for C. albicans was around ˜18 hrs. […] Microbial concentrations were adjusted to 1×10^5 CFU/mL by dilution with appropriate media. Silicone catheter-like tubing was terminally sterilized by autoclaving the tube for 45 minutes at 121° C. The sterilized catheter-like tubing was inoculated with 1×10^5 CFU/mL for 2 hours under continuous flow. Continuous flow was created by using a peristaltic pump, in which bacterial suspension was flowed through the catheter segments into a waste reservoir. After the 2 hour time period, the same set up was used to pump TSB media through the tubing for an additional 24 hours to allow biofilm to form on the walls of the catheter lumen. After 24 hours, sterilized saline was pumped through the lumen for 30 minutes to rinse the catheters. Catheters were then cut into 1 inch segments using sterile techniques. Catheter segments were dropped into sterile tubes containing 4 mL of antimicrobials, and incubated in a 37° C. incubator shaker for 1 hour. Segments were removed from treatment tubes and placed into new tubes filled with 6 mL of sterile saline. Each segment was swabbed with a sterile swab and both the tube and the swab were sonicated (Ultrasonic cleaner VWR Model 250T) for 3 minutes. Tubes and swabs were then vortexed (Fisher Scientific Vortex Mixer #02-215-365) for 30 seconds each. One hundred microliters of suspension was plated onto TSB agar plates (SDB for fungal species). The remaining 5.9 mL of suspension was passed through 0.4 μm filters and filters were placed on TSB plates. This step was taken to ensure that all possible bacteria were being recovered. All TSB plates were then incubated at 37° C. in a static incubator for 24-48 hours, at which time colony forming units were counted.

Candida albicans biofilm = assay: as above; assay type: cell-based; conditions: 38 mg/mL, 1 hour, silicone catheter segments
Method: as §4

C. albicans = assay: Minimum Biofilm Inhibitory Concentration (MBIC) test; assay type: cell-based, Candida albicans; conditions: for MBIC: adhered cells, 24 hours incubation; for MBIC Assuming 2 mL lock volume: amount in 2 mL lock volume
Method: as §1, §2, §3

P. aeruginosa = assay: as above; assay type: cell-based, Pseudomonas aeruginosa; conditions: for MBIC: adhered cells, 24 hours incubation; for MBIC Assuming 2 mL lock volume: amount in 2 mL lock volume
Method: as §1, §2, §3

sheep plasma = assay: Sheep's Plasma Clotting Assay (USP coagulation test); assay type: biochemical
Method: In order to understand what the working concentration range could be for the anesthetics tested, a Sheep's Plasma Clotting Assay was performed. This test is based on the United States Pharmacopeia (USP) standard test for coagulation and is often used to understand heparin potency. […] Sheep plasma was thawed in a water bath set to 37° C. To facilitate thawing, the plasma in the bottle was inverted every 15 minutes. The plasma was thawed after about 45-60 minutes. The thawed sheep plasma was filtered through glass wool or filtered into a clean glass beaker or flask, to remove particulate matter and to activate it. About 70-80 mL of filtered sheep plasma was collected. Next, a set of test tubes were prepared (VWR Disposable 13×100-mm) in a 6×12 rack. Ten test tubes were needed for each test solution including ten test tubes for the heparin standard. […] For each test solution, every (10) test tube received different volumes of 0.9% NaCl. […] Next, the local anesthetics were added, namely, tetracaine at 30 mg/mL, dibucaine at 30 mg/mL, and bupivacaine at 38 mg/mL. Each of the ten test tubes received different volumes of test solutions, starting with 280 μL and increasing in volume by 20 μL until reaching a volume of 460 μL at the tenth tube. The total volume of saline and test solutions in each of the tubes was 800 μL. A standard solution, namely, USP heparin sodium standard, was also prepared in the same way, with the starting concentration of heparin being 5.6 U/mL. Next, 1 mL of sheep plasma for heparin assay (Bio-Supplies, Inc, P-SPR-1500) was pipetted into each tube, and the rack was gently shaken to ensure mixing. Two hundred μL of a 1% CaCl2 solution was placed into each tube. The total volume for each tube is 2 mL. Each tube was capped with a VWR Plug-type cap, and contents of each tube were inverted six times to ensure that the entire inner wall of each tube was wet. Tubes were incubated for 1 hour at room temperature. After the 1 hour time period, the extent of clotting in each tube was determined by gently shaking each individual test tube (tapping the end gently is acceptable) and then tilting the tube to observe a clot both vertically and horizontally. The degree to which each tube developed a clot was recorded using the following criteria (per the USP Standard) for the visual inspection of the tubes: • 0% Clotting=No apparent clot formed. • 25% Clotting=Small observable clot with mostly liquid. Clot is very mobile. • 50% Clotting=Plasma is completely clotted but mobile. • 75% Clotting=Clot is not mobile but liquid is still present. • 100% Clotting=Clot is not mobile and no liquid is present.
Because of the testing protocol, starting concentrations of anesthetics were diluted from the original formulation. Calculations can be made to compare the efficacy of these anesthetics to the standard anticoagulant heparin by calculating the point at which both standard and test samples yield 50% clotting. Using this calculation, the anesthetic concentration can be referenced back to a measure of U/mL of heparin equivalence.

[2] = Internal testing of anticoagulant equivalence to heparin; conditions: per internal testing
[3] = system: Staphylococcus epidermidis; assay: Planktonic cell tests; assay type: cell-based; conditions: heparin solution
Method: In the planktonic cell tests, bupivacine was tested against non-adhering coagulase negative S. epidermidis, which is the bacterial species most prominent in the pathogenesis of CR-BSI. The planktonic cell experiments were performed by the following procedures. First, bacterial suspensions were prepared. Particularly, using BD BBL™ Qualiswab™, S. epidermidis was plated on a Tryptic Soy Broth (TSB) Petri Dish and grown overnight at 37° C. Using a sterile loop, a colony of S. epidermidis was picked up from the TSB Petri Dish and placed into a sterile flask containing 25 mL of sterile TSB media. The flask was then placed in a 37° C. shaking incubator and was shaken at 150 RPM overnight. The next day, 15 mL of the prepared bacterial suspension was placed into an autoclaved centrifuge tube and centrifuged at 10,000 RPM for 10 minutes using a Sorval Centrifuge. The bacteria from the bacterial suspension were rinsed in 0.9% saline by discarding the liquid media (after centrifugation step) and by resuspending the microbial pellet in 20 mL of sterile 0.9% saline. The bacteria were centrifuged and rinsed twice more, for a total of three saline rinses. […]
Bulk concentrations of the bupivacaine and/or vancomyacin (as noted in FIG. 1) were prepared in separate beakers and were filter sterilized. […] Samples were also assessed at time 0, in which there was no exposure to antimicrobials. […]

CCCCOc1cc(C(=O)NCCN(CC)CC)c2ccccc2n1.Cl [Dibucaine, Dibucaine HCl]
MBIC (S. epidermidis): 0.59 mg/mL | MBIC Assuming 2 mL lock volume (S. epidermidis): 1.18 mg | Log reduction of established biofilm ([1]; 38 mg/mL): ~0.5 Log | eradication of established biofilm (Candida albicans biofilm): completely eradicated | MBIC (C. albicans): 0.59 mg/mL | MBIC Assuming 2 mL lock volume (C. albicans): 1.18 mg | MBIC (P. aeruginosa; HCl): 4.794 mg/mL and 4.75 mg/mL | MBIC Assuming 2 mL lock volume (P. aeruginosa): 9.5 mg | Equivalence to Heparin (sheep plasma; calculated from volumes giving 50% clotting versus heparin standard, per replicate): 6.23 U/mL | 50% clotting range (sheep plasma; final concentration in tube, 1 hour at room temperature, per replicate): 5.1 to 5.4 mg/mL

O=C([O-])CC(O)(CC(=O)[O-])C(=O)[O-].[Na+].[Na+].[Na+] [sodium citrate]
anticoagulant equivalence to heparin [2]: about 20 units/mL of heparin

CCCNC(C)C(=O)Nc1ccccc1C.Cl (stereo not drawn) [Prilocaine, Prilocaine HCl]
antimicrobial effect on established biofilm [1]: minimal antimicrobial effect

heparin
antimicrobial effect against planktonic Staphylococcus epidermidis [3]: virtually no antimicrobial effect | volume at 50% coagulation (sheep plasma; Rep 1): 370 µL

Cc1cccc(C)c1NC(=O)C1CCCCN1C.Cl (stereo not drawn) [Mepivacaine, Mepivacaine HCl]
MBIC (S. epidermidis): 28.2 mg/mL | MBIC Assuming 2 mL lock volume (S. epidermidis): 56.4 mg | Log reduction of established biofilm ([1]; 28 mg/mL): 1.6 Log | MBIC (C. albicans): No inhibition | MBIC Assuming 2 mL lock volume (C. albicans): No inhibition | MBIC (P. aeruginosa): 28.2 mg/mL | MBIC Assuming 2 mL lock volume (P. aeruginosa): 56.4 mg
